Data taken from publication PMC11239830, “Synthetic macrolides overcoming MLSBK-resistant pathogens” (Cell Discovery, 2024).
In brackets after ≈: the same amount, converted by molar mass. Like-named read-outs stand apart in the source and are kept apart here.

Assays:
[1] = In vivo pharmacokinetic study; parameters: species or system SD rats; conditions: SD (Sprague-Dawley), rat, iv, plasma
Method: The SD rats were fasted overnight and dosed i.v. at a dose of 5 mg/kg in a solution of DMSO/PEG 400/water (5%/24%/71%). The whole blood was collected into tubes containing sodium heparin at 0.083 h, 0.25 h, 0.5 h, 1 h, 2 h, 4 h, 8 h and 24 h after dosing. After centrifugation of 6000 rpm for 10 min at 4 °C, plasma samples were transferred into 1.5 mL tubes and stored at –20 °C. Prior to analysis, the samples were thawed on ice. An amount of 50 μL of each plasma sample was added to a mixture of 50 μL of propranolol (300 ng/mL) and 100 μL of acetonitrile and centrifuged at 12,000 rpm at 4 °C for 10 min. The supernatant was diluted and analyzed by LC-MS/MS. The liquid chromatography was conducted on a Thermo Scientific Q Exactive HF-X (ThermoFisher Scientific, USA) instrument, employing an ACQUITY UPLC BEH C18 Column with dimensions of 130 Å, 1.7 µm, 2.1 mm × 100 mm. The liquid phase method employed gradient elution with mobile phases consisting of acetonitrile and an 0.1% aqueous formic acid solution. Mass spectrometry was conducted in positive ion mode. The quantification of drug concentration in plasma samples was performed using the internal standard method, and the obtained pharmacokinetic parameters were calculated using Phoenix WinNonlin software.

S. pyogenes = experiment: MIC, broth microdilution; format: cell-based, Streptococcus pyogenes
In short: (§1)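 Minimum inhibitory concentrations were measured by broth microdilution following CLSI guidelines. Plates were incubated at 37 °C for 16–20 h before results were read and recorded, and each determination was repeated at least three times.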

H. influenzae = experiment: MIC, broth microdilution; format: cell-based, Haemophilus influenzae; conditions: Haemophilus influenzae, ATCC49247, H. influenzae ATCC49247, Azi-S; read-out: MIC
In short: as §1

S. pneumoniae = experiment: MIC, broth microdilution; format: cell-based, Streptococcus pneumoniae
In short: as §1

M. catarrhalis = experiment: MIC, broth microdilution; format: cell-based, Moraxella catarrhalis; conditions: Moraxella catarrhalis; M. catarrhalis 13L332, Ery-S; read-out: MIC
Method: MICs were determined by the microdilution method according to the Clinical and Laboratory Standards Institute guidelines. Briefly, the stock solution of compounds and the reference antibiotics were diluted 2-fold in sterile 96-well plates with cation-adjusted Mueller-Hinton broth, and mixed with CAMHB-containing bacteria to give a final inoculum of 5 × 10^5 CFU/mL for broth microdilution experiments. […] Finally, the 96-well plates were incubated at 37 °C for 16–20 h to observe and record the results. The lowest concentration at which no bacterial growth could be observed visually was identified as the MICs of the compounds. The assay for MICs was replicated at least three times.

S. aureus = experiment: MIC, broth microdilution; format: cell-based, Staphylococcus aureus
In short: as §1

[2] = Streptococcus pyogenes, S. pyogenes 12-206, c-ermTR, read-out: MIC
[3] = Streptococcus pneumoniae, ATCC49619, S. pneumoniae ATCC49619, Ery-S, read-out: MIC
[4] = Streptococcus pneumoniae, S. pneumoniae 05O173, c-ermB, mef, read-out: MIC
[5] = Streptococcus pneumoniae, S. pneumoniae 07P390, c-ermB, read-out: MIC
[6] = Streptococcus pneumoniae, S. pneumoniae PU09, mef, read-out: MIC

CC[C@H]1OC(=O)[C@H](C)[C@@H](OC(=O)NCCCOCCC#Cc2ccc3c(=O)c(C(=O)O)cn(C)c3c2)[C@H](C)[C@@H](O[C@@H]2O[C@H](C)C[C@H](N(C)C)[C@H]2O)[C@](C)(OC)C[C@@H](C)C(=O)[C@H](C)[C@H]2NC(=O)O[C@@]21C (hydrate or solvate) [MCX-190]
melting point: 157.9 to 158.8 °C

CCOC(=O)c1cn(C)c2cc(C#CCCCCCCNC(=O)O[C@H]3[C@H](C)[C@@H](O[C@@H]4O[C@H](C)C[C@H](N(C)C)[C@H]4O)[C@](C)(OC)C[C@@H](C)C(=O)[C@H](C)[C@H]4NC(=O)O[C@]4(C)[C@@H](CC)OC(=O)[C@@H]3C)ccc2c1=O (hydrate or solvate) [88h]
melting point: 141.1 to 142 °C

CCOC(=O)c1cn(C)c2cc(C#CCCCCCCNC(=O)O[C@H]3[C@H](C)[C@@H](O[C@@H]4O[C@H](C)C[C@H](N(C)C)[C@H]4O)[C@](C)(OC)C[C@@H](C)C(=O)[C@H](C)[C@H]4NC(=O)O[C@]4(C)[C@@H](CC)OC(=O)[C@@H]3C)ccc2c1=O [88h]
Cmax ([1]; male SD rats, i.v. 5 mg/kg): 2650 ± 250 ng/mL | MRT ([1]; male SD rats, i.v. 5 mg/kg): 1.64 ± 0.665 h | Tmax ([1]; male SD rats, i.v. 5 mg/kg): 4.8 min | half-life ([1]; male SD rats, i.v. 5 mg/kg): 2.63 ± 1.3 h | AUC(0-inf) ([1]; male SD rats, i.v. 5 mg/kg, mean ± SD, n 3): 1790 ± 90 ng·h/mL | AUC(0-t) ([1]; male SD rats, i.v. 5 mg/kg, read-out: AUC0-24): 1760 ± 100 ng·h/mL | clearance ([1]; male, 5 mg/kg): 46.5 mL/min/kg | MIC (S. pyogenes; [2]): 2 µg/mL (≈ 2.01 µM) | MIC (H. influenzae): 32 µg/mL (≈ 32.2 µM) | MIC (S. pneumoniae; [3]): ≤ 0.008 µg/mL | MIC (S. pneumoniae; [4]): 64 µg/mL (≈ 64.3 µM) | MIC (S. pneumoniae; [5]): 0.5 µg/mL (≈ 0.502 µM) | MIC (M. catarrhalis): 4 µg/mL (≈ 4.02 µM)

CC[C@H]1OC(=O)[C@H](C)[C@@H](OC(=O)NCCCCCCC#Cc2ccc3c(=O)c(C(=O)O)cn(C)c3c2)[C@H](C)[C@@H](O[C@@H]2O[C@H](C)C[C@H](N(C)C)[C@H]2O)[C@](C)(O)C[C@@H](C)CN(C)[C@H](C)[C@@H](O)[C@]1(C)O [106g]
MIC (S. pyogenes; [2]): 4 µg/mL (≈ 4.24 µM) | MIC (H. influenzae): 8 µg/mL (≈ 8.48 µM) | MIC (S. pneumoniae; [3]): 0.25 µg/mL (≈ 0.265 µM) | MIC (S. pneumoniae; [4]): 128 µg/mL (≈ 136 µM) | MIC (S. pneumoniae; [5]): 4 µg/mL (≈ 4.24 µM) | MIC (M. catarrhalis): 0.5 µg/mL (≈ 0.53 µM)

CC[C@H]1OC(=O)[C@H](C)[C@@H](OC(=O)NCCCCCCCC#Cc2ccc3c(=O)c(C(=O)O)cn(C)c3c2)[C@H](C)[C@@H](O[C@@H]2O[C@H](C)C[C@H](N(C)C)[C@H]2O)[C@](C)(OC)C[C@@H](C)C(=O)[C@H](C)[C@H]2NC(=O)O[C@@]21C [89g]
MIC (S. pyogenes; [2]): 1 µg/mL (≈ 1.02 µM) | MIC (H. influenzae): 8 µg/mL (≈ 8.15 µM) | MIC (S. pneumoniae; [3]): ≤ 0.008 µg/mL | MIC (S. pneumoniae; [4]): 16 µg/mL (≈ 16.3 µM) | MIC (S. pneumoniae; [5]): 0.25 µg/mL (≈ 0.255 µM) | MIC (M. catarrhalis): 1 µg/mL (≈ 1.02 µM)

CC[C@H]1OC(=O)[C@H](C)[C@@H](OC(=O)NCCCNCCC#Cc2ccc3c(=O)c(C(=O)O)cn(C4CC4)c3c2)[C@H](C)[C@@H](O[C@@H]2O[C@H](C)C[C@H](N(C)C)[C@H]2O)[C@](C)(OC)C[C@@H](C)C(=O)[C@H](C)[C@H]2NC(=O)O[C@@]21C [98c]
MIC (S. aureus; Staphylococcus aureus, S. aureus 15B196, c-ermB, read-out: MIC): 256 µg/mL (≈ 257 µM) | MIC (S. aureus; Staphylococcus aureus, S. aureus PU32, i-ermA, read-out: MIC): 4 µg/mL (≈ 4.02 µM) | MIC (S. pyogenes; [2]): 2 µg/mL (≈ 2.01 µM) | melting point: 148.6 to 149.5 °C | MIC (H. influenzae): 64 µg/mL (≈ 64.4 µM) | MIC (S. pneumoniae; [3]): 0.5 µg/mL (≈ 0.503 µM) | MIC (S. pneumoniae; [5]): 2 µg/mL (≈ 2.01 µM) | MIC (S. pneumoniae; [6]): 0.5 µg/mL (≈ 0.503 µM)

CC[C@H]1OC(=O)[C@H](C)[C@@H](O[C@H]2C[C@@](C)(OC)[C@@H](O)[C@H](C)O2)[C@H](C)[C@@H](O[C@@H]2O[C@H](C)C[C@H](N(C)C)[C@H]2O)[C@](C)(OC)C[C@@H](C)C(=O)[C@H](C)[C@@H](O)[C@]1(C)O [clarithromycin, reference compound]
MIC (S. aureus; S. aureus 15B196, c-ermB): 512 µg/mL (≈ 685 µM) | MIC (S. aureus; S. aureus ATCC29213): 0.25 µg/mL (≈ 0.334 µM) | MIC (S. aureus; S. aureus PU32, Clinical, MRSA, i-ermA): 16 µg/mL (≈ 21.4 µM) | MIC (S. pyogenes; S. pyogenes 12-206, c-ermTR): 512 µg/mL (≈ 685 µM) | MIC (S. pyogenes; S. pyogenes 21C303, Clinical, c-ermB): > 64 µg/mL | MIC (S. pyogenes; S. pyogenes 21D184, Clinical, c-ermB): > 64 µg/mL | MIC (S. pyogenes; S. pyogenes 21D199, Clinical, c-ermB): > 64 µg/mL | MIC (S. pyogenes; S. pyogenes 21D200, Clinical, c-ermB): > 64 µg/mL | MIC (S. pyogenes; S. pyogenes 21K003, Clinical, mef): 2 µg/mL (≈ 2.67 µM) | MIC (S. pyogenes; S. pyogenes 21M063, Clinical, c-ermB): > 64 µg/mL | MIC (S. pyogenes; S. pyogenes 21W186, Clinical, c-ermTR): > 64 µg/mL | MIC (S. pyogenes; Streptococcus pyogenes, S. pyogenes 01-968, i-ermTR (Table S5), read-out: MIC): 4 µg/mL (≈ 5.35 µM) | MIC (H. influenzae): 16 µg/mL (≈ 21.4 µM) | MIC (S. pneumoniae; S. pneumoniae 07P390, c-ermB): 512 µg/mL (≈ 685 µM) | MIC (S. pneumoniae; S. pneumoniae 21C315, Clinical, c-ermB): > 64 µg/mL | MIC (S. pneumoniae; S. pneumoniae 21D016, Clinical, c-ermB, mef): > 64 µg/mL | MIC (S. pneumoniae; S. pneumoniae 21D020, Clinical, c-ermB, mef): > 64 µg/mL | MIC (S. pneumoniae; S. pneumoniae 21M277, Clinical, c-ermB): > 64 µg/mL | MIC (S. pneumoniae; S. pneumoniae 21Q352, Clinical, i-MLSB): 16 µg/mL (≈ 21.4 µM) | MIC (S. pneumoniae; S. pneumoniae 21Q353, Clinical, i-MLSB): 8 µg/mL (≈ 10.7 µM) | MIC (S. pneumoniae; S. pneumoniae 21W257, Clinical, c-ermB, mef): > 64 µg/mL | MIC (S. pneumoniae; S. pneumoniae 21X435, Clinical): 0.12 µg/mL (≈ 0.16 µM) | MIC (S. pneumoniae; S. pneumoniae ATCC49619): 0.12 µg/mL (≈ 0.16 µM) | MIC (S. pneumoniae; [6]): 8 µg/mL (≈ 10.7 µM) | MIC (M. catarrhalis): 0.25 µg/mL (≈ 0.334 µM)
